Source: ChEMBL document CHEMBL4257567, “Design of novel lipidated peptidomimetic conjugates for targeting EGFR heterodimerization in HER2 + cancer” (Bioorg Med Chem Lett, 2018)
The source made the active and inactive calls. No cut-off for these calls is given here. Where a SMILES comes first, the peptide text is derived from it. The star is where a group is joined. 6FAM = O=C1OC2(c3ccc(O)cc3Oc3cc(O)ccc32)c2cc(C(=O)*)ccc21; Stearoyl = CCCCCCCCCCCCCCCCCC(=O)*

Legend:
[1] = target: Receptor tyrosine-protein kinase erbB-2 (Homo sapiens) (UniProt P04626); assay: Binding affinity to HER2 in human BT474 cells at 0.5 uM after 30 mins by DAPI staining based microscopic method; format: cell-based
Chain of Receptor tyrosine-protein kinase erbB-2 (Homo sapiens) (P04626 whole entry, the tested form may be a part): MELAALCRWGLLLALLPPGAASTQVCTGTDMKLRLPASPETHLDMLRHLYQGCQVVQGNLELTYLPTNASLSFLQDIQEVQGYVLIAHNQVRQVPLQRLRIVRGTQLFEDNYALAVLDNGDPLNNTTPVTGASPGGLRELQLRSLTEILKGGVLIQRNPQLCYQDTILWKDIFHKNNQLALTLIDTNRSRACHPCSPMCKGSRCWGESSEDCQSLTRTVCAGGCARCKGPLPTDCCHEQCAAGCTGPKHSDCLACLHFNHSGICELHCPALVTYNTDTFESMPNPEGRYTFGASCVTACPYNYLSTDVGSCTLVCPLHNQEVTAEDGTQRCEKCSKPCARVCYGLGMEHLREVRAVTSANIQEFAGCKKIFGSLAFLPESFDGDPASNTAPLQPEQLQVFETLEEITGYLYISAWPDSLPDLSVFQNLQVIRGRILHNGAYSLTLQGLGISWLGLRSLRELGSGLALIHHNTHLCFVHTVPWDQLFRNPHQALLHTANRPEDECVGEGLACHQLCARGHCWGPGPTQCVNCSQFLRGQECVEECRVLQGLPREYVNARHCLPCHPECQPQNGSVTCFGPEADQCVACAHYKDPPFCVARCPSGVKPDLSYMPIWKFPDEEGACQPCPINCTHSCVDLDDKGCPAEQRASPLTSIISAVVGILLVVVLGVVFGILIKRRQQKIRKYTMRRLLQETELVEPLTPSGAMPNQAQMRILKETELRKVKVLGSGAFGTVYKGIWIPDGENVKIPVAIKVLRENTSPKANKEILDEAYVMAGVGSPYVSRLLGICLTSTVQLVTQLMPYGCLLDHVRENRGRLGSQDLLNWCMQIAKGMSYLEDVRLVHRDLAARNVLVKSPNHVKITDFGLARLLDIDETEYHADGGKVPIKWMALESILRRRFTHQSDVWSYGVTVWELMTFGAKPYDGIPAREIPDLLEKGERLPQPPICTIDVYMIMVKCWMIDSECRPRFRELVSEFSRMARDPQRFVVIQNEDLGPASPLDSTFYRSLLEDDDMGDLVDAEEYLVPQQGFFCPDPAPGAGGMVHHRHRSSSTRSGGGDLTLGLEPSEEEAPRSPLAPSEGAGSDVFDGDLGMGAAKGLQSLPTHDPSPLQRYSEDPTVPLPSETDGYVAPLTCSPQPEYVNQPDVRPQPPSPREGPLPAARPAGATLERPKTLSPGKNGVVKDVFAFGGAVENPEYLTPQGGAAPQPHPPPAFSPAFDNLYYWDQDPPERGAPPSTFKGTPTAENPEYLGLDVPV

[2] = target: Receptor tyrosine-protein kinase erbB-2 (Homo sapiens) (UniProt P04626); assay: Binding affinity to HER2 in human BT474 cells assessed as receptor internalization at 0.5 uM after 2 hrs by DAPI/Lysotracker staining based microscopic method; format: cell-based
BT-474 = assay: Antiproliferative activity against human BT474 cells after 72 hrs by CellTiter-Glo assay; format: functional, cell-based; conditions: BT-474, 72 h
Calu-3 = assay: Antiproliferative activity against human Calu3 cells after 72 hrs by CellTiter-Glo assay; format: functional, cell-based; conditions: Calu-3, 72 h
A549 = assay: Antiproliferative activity against human A549 cells after 72 hrs by CellTiter-Glo assay; format: functional, cell-based; conditions: A549, 72 h
MCF7 = assay: Antiproliferative activity against human MCF7 cells after 72 hrs by CellTiter-Glo assay; format: functional, cell-based; conditions: MCF7, 72 h
[3] = target: Receptor tyrosine-protein kinase erbB-2 (Homo sapiens) (UniProt P04626); assay: Inhibition of FITC-aminocaproic acid-Arg-(S)Anapa-Phe-OH binding to HER2 domain-4 in human BT474 cells at 0.5 to 200 uM after 45 mins by fluorescence assay; format: cell-based
[4] = target: Receptor tyrosine-protein kinase erbB-2 (Homo sapiens) (UniProt P04626); assay: Binding affinity to HER2 extracellular domain (unknown origin) at 25 to 100 uM by SPR analysis
MCF-10A = assay: Antiproliferative activity against human MCF10A cells after 72 hrs by CellTiter-Glo assay; format: cell-based
[5] = target: Receptor tyrosine-protein kinase erbB-2 (Homo sapiens) (UniProt P04626); assay: Inhibition of FITC-aminocaproic acid-Arg-(S)Anapa-Phe-OH binding to HER2 domain-4 in human BT474 cells after 45 mins by fluorescence assay; format: cell-based
[6] = target: Receptor tyrosine-protein kinase erbB-2 (Homo sapiens) (UniProt P04626); assay: Inhibition of Stearic acid-Gly-Arg-(S)Anapa-Phe-Asp-Gly-Gly-Gly-Lys-OH (FAM Lys side chain) binding to HER2 domain-4 in human BT474 cells after 45 mins by fluorescence assay; format: cell-based
[7] = target: Receptor tyrosine-protein kinase erbB-2 (Homo sapiens) (UniProt P04626); assay: Inhibition of Stearic acid-Gly-Arg-(S)Anapa-Phe-Asp-Gly-Gly-Gly-Lys-OH (FAM Lys side chain) binding to HER2 domain-4 in human BT474 cells at 0.5 to 100 uM after 1 hr by DAPI staining based microscopic method; format: cell-based
[8] = target: Receptor tyrosine-protein kinase erbB-2 (Homo sapiens) (UniProt P04626); assay: Binding affinity to HER2 extracellular domain (unknown origin) by SPR analysis
[9] = target: Receptor tyrosine-protein kinase erbB-2 (Homo sapiens) (UniProt P04626); assay: Binding affinity to HER2 in human BT474 cells assessed as inhibition of HER2:HER3 heterodimerization at 1 to 5 uM after 48 hrs by DAPI staining based proximity ligation assay; format: cell-based
[10] = Stability in human serum after 24 hrs by HPLC analysis; format: ADME, cell-free
[11] = Half life in human serum by HPLC analysis; format: ADME, cell-free
[12] = Stability in human serum after 24 hrs by MALDI-TOF-MS analysis; format: ADME, cell-free

| Compound | IC50 (BT-474) | IC50 (Calu-3) | IC50 (A549) | IC50 (MCF7) | IC50 (MCF-10A) | further results |
| --- | --- | --- | --- | --- | --- | --- |
| CCCCCCCCCCCCCCCCCC(=O)NCC(=O)N[C@@H](CCCNC(=N)N)C(=O)N[C@@H](C)C(=O)N[C@@H](C)C(=O)N[C@@H](CC(C)C)C(=O)NCC(=O)NCC(=O)NCC(=O)N[C@@H](CCCCNC(=O)c1ccc2c(c1)C1(OC2=O)c2ccc(O)cc2Oc2cc(O)ccc21)C(=O)O (Stearoyl-GRAALGGGK(6FAM)-OH) |  |  |  |  |  | Activity [1]: inactive; Activity [2]: inactive |
| NCCCC[C@H](N)C(=O)Nc1cccc(-c2ccccc2)c1CCC(=O)N[C@@H](Cc1ccccc1)C(=O)O | > 35000 nM | > 35000 nM | > 35000 nM | > 35000 nM |  | inhibition [3]: inactive; Activity [4]: inactive |
| CCCCCCCCCCCCCCCCCC(=O)N[C@@H](CCCNC(=N)N)C(=O)N[C@@H](CC(=O)N[C@@H](CCCCN)C(=O)O)c1cccc2ccccc12 | 1200 nM |  |  |  |  |  |
| CCCCCCCCCCCCCCCCCC(=O)N[C@@H](CCCNC(=N)N)C(=O)N[C@@H](CC(=O)N[C@@H](Cc1ccccc1)C(=O)O)c1cccc2ccccc12 | 1000 nM | 1460 nM | 1170 nM | > 35000 nM | > 35000 nM | inhibition [5]: Dose-dependent effect; inhibition [6]: Dose-dependent effect; inhibition [7]: Active; Activity [8]: Dose-dependent effect; inhibition [9]: Active; Stability [10]: Stable; half-life [11]: 5 h; Stability [12]: Stable |
| CCCCCCCCCCCCCCCC(=O)N[C@@H](CCCNC(=N)N)C(=O)N[C@@H](CC(=O)N[C@@H](Cc1ccccc1)C(=O)O)c1cccc2ccccc12 | 1400 nM | 1560 nM | 1010 nM | > 35000 nM | > 35000 nM |  |
| CCCCCCCCCCCCCCCC(=O)N[C@@H](CCCNC(=N)N)C(=O)N[C@@H](CC(=O)N[C@@H](CCCCN)C(=O)O)c1cccc2ccccc12 | 1400 nM |  |  |  |  |  |
